Values of other authors as cited in patent US7335681B2, “Amino ceramide-like compounds and therapeutic methods of use” (The Regents of the University of Michigan, priority 2001, dated 2008).

Columns and labels:
GlcCer = conditions: in vivo
E. coli = conditions: PDMP treatment
[1] = system: Ehrlich ascites carcinoma cells

CN(C)CCCN1c2ccccc2Sc2ccc(Cl)cc21 [chlorpromazine]
tissue levels of GlcCer (GlcCer): lower tissue levels of GlcCer

CCCCCCCCCC(=O)N[C@H](CN1CCOCC1)[C@H](O)c1ccccc1 [PDMP, 1R-phenyl-2R-decanoylamino-3-morpholino-1-propanol]
cellular content of PKC (PKC): lower the cellular content of PKC | adherence of E. coli to mammalian cells (E. coli): reduces the adherence | antitumor effect in mice [1]: cure mice of cancer
